Where two headings read alike, the source gives them in different places.
Legend:
THR beta-LBD = biological target: T1, THR beta-LBD (Homo sapiens, UniProt P10828); assay: THR-β Coactivator Peptide Recruitment Assay (LanthaScreen TR-FRET); assay type: biochemical
T1 construct: THR beta-LBD (the final concentration is 0.5 nM) was added to the 384-well assay plate; purchased Invitrogen PV4686
T1 sequence (P10828 217-461 limits assumed): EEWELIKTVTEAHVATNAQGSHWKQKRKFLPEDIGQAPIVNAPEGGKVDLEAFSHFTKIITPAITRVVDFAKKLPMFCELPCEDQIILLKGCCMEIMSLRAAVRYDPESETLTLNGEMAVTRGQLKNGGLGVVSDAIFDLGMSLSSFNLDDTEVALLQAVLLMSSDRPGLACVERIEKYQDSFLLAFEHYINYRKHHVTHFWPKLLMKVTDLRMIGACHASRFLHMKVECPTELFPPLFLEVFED
Outline: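 Agonist-driven coactivator recruitment read as a 520/495 nm TR-FRET emission ratio after 2 h at room temperature. Final concentrations: THR beta-LBD 0.5 nM, fluorescein-SRC2-2 peptide 0.1 nM, terbium anti-GST antibody 2 nM. EC50 from four-parameter dose-response fitting.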

THR alpha-LBD = biological target: T2, THR alpha-LBD (Homo sapiens, UniProt P10827); assay: THR-α Coactivator Peptide Recruitment Assay (LanthaScreen TR-FRET); assay type: biochemical
T2 construct: except that THR alpha-LBD of a final concentration 0.25 nM was used; purchased Invitrogen PV4687
Outline: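 TR-FRET coactivator recruitment with THR alpha-LBD at 0.25 nM final, Fluorescein-SRC2-2 peptide 0.1 nM and Tb-labeled anti-GST antibody 2 nM; 2 h incubation at room temperature. 520/495 nm emission ratio fitted to a four-parameter sigmoidal curve to give EC50.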

[1] = TR-FRET coactivator recruitment, THR beta-LBD 0.5 nM
[2] = TR-FRET coactivator recruitment, THR beta-LBD 0.5 nM, read-out: THRβ EC50
[3] = TR-FRET coactivator recruitment, THR alpha-LBD 0.25 nM
[4] = TR-FRET coactivator recruitment, THR alpha-LBD 0.25 nM, read-out: THRα EC50

T2 sequence (P10827 163-410 isoform P10827-2 limits assumed, other chains not shown): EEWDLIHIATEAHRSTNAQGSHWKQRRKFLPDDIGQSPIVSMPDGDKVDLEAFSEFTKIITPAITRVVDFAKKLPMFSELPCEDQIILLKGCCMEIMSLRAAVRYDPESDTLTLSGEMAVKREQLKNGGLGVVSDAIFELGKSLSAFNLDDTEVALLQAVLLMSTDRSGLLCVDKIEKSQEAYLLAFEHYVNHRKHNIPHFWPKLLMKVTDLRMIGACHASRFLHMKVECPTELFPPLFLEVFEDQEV

SMILES	THRβ Emax (THR beta-LBD; [1])	EC50 (THR beta-LBD; [2]) [nM]	THRα Emax (THR alpha-LBD; [3])	EC50 (THR alpha-LBD; [4]) [nM]	EC50 (THR beta-LBD) [nM]	EC50 (THR alpha-LBD) [nM]
O=C(NC1CC1)C1(NS(=O)(=O)c2cc(Oc3c(Cl)cc(-n4nc(C(F)F)c(=O)[nH]c4=O)cc3Cl)ccc2O)CC1 [Compound 71, N-cyclopropyl-1-[[5-[2,6-dichloro-4-[6-(difluoromethyl)-3,5-dioxo-1,2,4-triazin-2-yl]phenoxy]-2-hydroxy-phenyl]sulfonylamino] cyclopropane carboxamide]	A (90~110)	2 to 20	B (40~85)	2 to 200		
CS(=O)(=O)NC1CN(S(=O)(=O)c2cc(Oc3c(Cl)cc(-n4nc(C(F)F)c(=O)[nH]c4=O)cc3Cl)ccc2O)C1 [Compound 73, N-[l-[5-[2,6-dichloro-4-[6-(difluoromethyl)-3,5-dioxo-1,2,4-triazin-2-yl]phenoxy]-2-hydroxy-phenyl]sulfonylazetidin-3-yl] methane sulfonamide]	C (<75)	2 to 20	B (40~85)	2 to 200		
O=c1[nH]c(=O)n(-c2cc(Cl)c(Oc3ccc(O)c(S(=O)(=O)NC4CC5(CC(O)C5)C4)c3)c(Cl)c2)nc1C(F)F (stereo not drawn) [Compound 74, 5-[2,6-dichloro-4-[6-(difluoromethyl)-3,5-dioxo-1,2,4-triazin-2-yl]phenoxy]-2-hydroxy-N-(2-hydroxyspiro [3.3]heptan-6-yl) benzene sulfonamide]	B (75~90)	20 to 100	B (40~85)	200 to 1000		
O=c1[nH]c(=O)n(-c2cc(Cl)c(Oc3ccc(O)c(S(=O)(=O)N4CC[C@@H](O)C4)c3)c(Cl)c2)nc1C(F)F [Compound 76, (R)-2-(3,5-dichloro-4-(4-hydroxy-3-((3-hydroxypyrrolidin-1-yl)sulfonyl)phenoxy)phenyl)-6-(difluoromethyl)-1,2,4-triazine-3,5(2H,4H)-dione]	B (75~90)	< 2	A (85~110)	2 to 200		
O=c1[nH]c(=O)n(-c2cc(Cl)c(Oc3ccc(O)c(S(=O)(=O)N4CC[C@H](O)C4)c3)c(Cl)c2)nc1C(F)F [Compound 77, (S)-2-(3,5-dichloro-4-(4-hydroxy-3-((3-hydroxypyrrolidin-1-yl)sulfonyl)phenoxy)phenyl)-6-(difluoromethyl)-1,2,4-triazine-3,5(2H,4H)-dione]	B (75~90)	< 2	A (85~110)	2 to 200		
O=C(N[C@H]1C[C@H](NS(=O)(=O)c2cc(Oc3c(Cl)cc(-n4nc(C(F)F)c(=O)[nH]c4=O)cc3Cl)ccc2O)C1)C1CC1 [Compound 78, N-[3-[[5-[2,6-dichloro-4-[6-(difluoromethyl)-3,5-dioxo-1,2,4-triazin-2-yl]-phenoxy]-2-hydroxy-phenyl]-sulfonylamino]-cyclobutyl]-cyclopropanecarboxamide]	C (<75)		B (40~85)		20 to 100	200 to 1000
N#CC12CC(NS(=O)(=O)c3cc(Oc4c(Cl)cc(-n5nc(C(F)F)c(=O)[nH]c5=O)cc4Cl)ccc3O)(C1)C2 [Compound 79, N-(3-cyanobicyclo[1.1.1]pentan-1-yl)-5-(2,6-dichloro-4-(6-(difluoromethyl)-3,5-dioxo-4,5-dihydro-1,2,4-triazin-2 (3H)-yl)phenoxy)-2-hydroxybenzenesulfonamide]	B (75~90)	< 2	A (85~110)	2 to 200		
O=c1[nH]c(=O)n(-c2cc(Cl)c(Oc3ccc(O)c(S(=O)(=O)NCC4(O)CC4)c3)c(Cl)c2)nc1C(F)F [Compound 80, 5-(2,6-dichloro-4-(6-(difluoromethyl)-3,5-dioxo-4,5-dihydro-1,2,4-triazin-2(3H)-yl)phenoxy)-2-hydroxy-N-((1-hydroxycyclopropyl)methyl)benzenesulfonamide]	A (90~110)	2 to 20	A (85~110)	2 to 200		
O=c1[nH]c(=O)n(-c2cc(Cl)c(Oc3ccc(O)c(S(=O)(=O)NC45CC(O)(C4)C5)c3)c(Cl)c2)nc1C(F)F [Compound 81, 5-(2,6-dichloro-4-(6-(difluoromethyl)-3,5-dioxo-4,5-dihydro-1,2,4-triazin-2(3H)-yl)phenoxy)-2-hydroxy-N-(3-hydroxybicyclo[1.1.1]pentan-1-yl)benzenesulfonamide]	A (90~110)	2 to 20	A (85~110)	2 to 200		
CS(=O)(=O)[C@H]1C[C@H](NS(=O)(=O)c2cc(Oc3c(Cl)cc(-n4nc(C(F)F)c(=O)[nH]c4=O)cc3Cl)ccc2O)C1 [Compound 82, 5-(2,6-dichloro-4-(6-(difluoromethyl)-3,5-dioxo-4,5-dihydro-1,2,4-triazin-2(3H)-yl)phenoxy)-2-hydroxy-N-((1r,3r)-3-(methylsulfonyl)cyclobutyl)benzenesulfonamide]	B (75~90)	20 to 100	B (40~85)	> 1000		
O=c1[nH]c(=O)n(-c2cc(Cl)c(Oc3ccc(O)c(S(=O)(=O)NC4CS(=O)(=O)C4)c3)c(Cl)c2)nc1C(F)F [Compound 83, 5-(2,6-dichloro-4-(6-(difluoromethyl)-3,5-dioxo-4,5-dihydro-1,2,4-triazin-2(3H)-yl)phenoxy)-N-(1,1-dioxidothietan-3-yl)-2-hydroxybenzenesulfonamide]	A (90~110)	< 2	A (85~110)	2 to 200		
O=C(NCC1(NS(=O)(=O)c2cc(Oc3c(Cl)cc(-n4nc(C(F)F)c(=O)[nH]c4=O)cc3Cl)ccc2O)CC1)C1CC1 [Compound 84, N-[[1-[[5-[2,6-dichloro-4-[6-(difluoromethyl)-3,5-dioxo-1,2,4-triazin-2-yl]phenoxy]-2-hydroxy-phenyl]sulfonylamino]cyclopropyl]methyl]cyclopropane carboxamide]	A (90~110)	< 2	A (85~110)	2 to 200		
O=C(NC12CC(NS(=O)(=O)c3cc(Oc4c(Cl)cc(-n5nc(C(F)F)c(=O)[nH]c5=O)cc4Cl)ccc3O)(C1)C2)C1CC1 [Compound 85, N-(3-((5-(2,6-dichloro-4-(6-(difluoromethyl)-3,5-dioxo-4,5-dihydro-1,2,4-triazin-2(3H)-yl)phenoxy)-2-hydroxyphenyl)sulfonamido)bicyclo[1.1.1]pentan-1-yl)cyclopropanecarboxamide]	C (<75)	> 100	C (<40)	> 1000		
O=C(N[C@H]1C[C@@H](NS(=O)(=O)c2cc(Oc3c(Cl)cc(-n4nc(C(F)F)c(=O)[nH]c4=O)cc3Cl)ccc2O)C1)C1CC1 [Compound 86, N-((1s,3s)-3-((5-(2,6-dichloro-4-(6-(difluoromethyl)-3,5-dioxo-4,5-dihydro-1,2,4-triazin-2(3H)-yl)phenoxy)-2-hydroxyphenyl)sulfonamido)cyclobutyl) cyclopropanecarboxamide]	C (<75)	2 to 20	C (<40)	200 to 1000		
O=C(NCC(F)F)C1(NS(=O)(=O)c2cc(Oc3c(Cl)cc(-n4nc(C(F)F)c(=O)[nH]c4=O)cc3Cl)ccc2O)CC1 [Compound 87, 1-[[5-[2,6-dichloro-4-[6-(difluoromethyl)-3,5-dioxo-1,2,4-triazin-2-yl]phenoxy]-2-hydroxy-phenyl]sulfonylamino]-N-(2,2-difluoroethyl) cyclopropanecarboxamide]	B (75~90)	< 2	B (40~85)	200 to 1000		
O=C(CNS(=O)(=O)c1cc(Oc2c(Cl)cc(-n3nc(C(F)F)c(=O)[nH]c3=O)cc2Cl)ccc1O)NCC(F)F [Compound 88, 2-((5-(2,6-dichloro-4-(6-(difluoromethyl)-3,5-dioxo-4,5-dihydro-1,2,4-triazin-2(3H)-yl)phenoxy)-2-hydroxyphenyl)sulfonamido)-N-(2,2-difluoroethyl)acetamide]	B (75~90)	20 to 100	B (40~85)	200 to 1000		
O=C(NC1CCC1)C1(NS(=O)(=O)c2cc(Oc3c(Cl)cc(-n4nc(C(F)F)c(=O)[nH]c4=O)cc3Cl)ccc2O)CC1 [Compound 89, N-cyclobutyl-1-((5-(2,6-dichloro-4-(6-(difluoromethyl)-3,5-dioxo-4,5-dihydro-1,2,4-triazin-2(3H)-yl)phenoxy)-2-hydroxyphenyl)sulfonamido)cyclopropane-1-carboxamide]	B (75~90)	< 2	A (85~110)	2 to 200		
O=C(NC1CCCC1)C1(NS(=O)(=O)c2cc(Oc3c(Cl)cc(-n4nc(C(F)F)c(=O)[nH]c4=O)cc3Cl)ccc2O)CC1 [Compound 90, N-cyclopentyl-1-((5-(2,6-dichloro-4-(6-(difluoromethyl)-3,5-dioxo-4,5-dihydro-1,2,4-triazin-2(3H)-yl)phenoxy)-2-hydroxyphenyl)sulfonamido)cyclopropane-1-carboxamide]	B (75~90)	< 2	A (85~110)	2 to 200		

— patent US12291518B2, “Thyroid hormone receptor agonists and use thereof” (Eccogene Inc., priority 2020, dated 2025)
